Values joined by “and” are separate entries in the source; they are usually repeats but may differ in a detail not shown here. Equal values may be shown once.
What was measured:
HIV-1 (HTLV-IIIB) = assay: microbe, parasite or virus in culture; format: cell-based; settings: for ED50: antiviral activity, MT-4 cells challenged with HIV-1 (HTLV-IIIB) at 100 CCID50, 5 days
Procedure: (§1) The compounds of the invention were tested in a screen by the MTT method (J.Virol. Methods […]: 309-321 [1988]). MT-4 cells (2.5 x 10⁴ / well) were challenged with HIV-1 (HTLV-IIIB) or HIV-2 (LAV-2 ROD) at a concentration of 100 CCID₅₀ and incubated in the presence of various concentrations of the test compounds, which were added immediately after challenge with the virus. After 5 days culture at 37°C in a CO₂ incubator, the number of viable cells was assessed by the MTT (tetrazolium) method. Antiviral activity and cytotoxicity of the compounds are expressed in the table below as ED₅₀ (ug/ml) and CD₅₀ (ug/ml), respectively. The potential therapeutic usefulness was assessed by calculating a Selectivity Index (SI) corresponding to the ratio of CD₅₀ to ED₅₀. A control test was performed using the known anti-HIV treatment AZT, and a comparison compound HPA-23 was also run through the screen as detailed below. In the table below, the compounds screened were […]

[1] = Cytotoxicity by MTT method; format: cell-based; settings: human, MT-4 cells, 5 days, read-out: CD50
Procedure: as §1

MT-4 cells = assay: Cytotoxicity by MTT method; format: cell-based; settings: 5 days
Procedure: as §1

HIV-2 (LAV-2 ROD) = assay: MTT method anti-HIV screen in MT-4 cells, HIV-2 challenge; format: cell-based; settings: antiviral activity, MT-4 cells challenged with HIV-2 (LAV-2 ROD) at 100 CCID50, 5 days
Procedure: as §1

herpes virus = settings: from JP 64-38,022; cited from earlier work
[2] = in vivo; cited from earlier work
HIV = settings: reported in Chemical and Engineering News, December 1986; cited from earlier work
[3] = value printed in the HIV-1 line, 7200 min
[4] = value printed in the HIV-2 line, 7200 min
[5] = value printed in the HIV-1 line
[6] = value printed in the HIV-2 line

Row | Molecule | ED50 (HIV-1 (HTLV-IIIB)) [µg/mL] | CD50 (MT-4 cells; [5]) [µg/mL] | CD50 (MT-4 cells; [6]) [µg/mL] | ED50 (HIV-2 (LAV-2 ROD)) [µg/mL] | other results
1 | Cc1cn([C@H]2C[C@H](N=[N+]=[N-])[C@@H](CO)O2)c(=O)[nH]c1=O [AZT, azidothymidione, reference compound] | – | – | – | – | EC50 (HIV-1 (HTLV-IIIB); Human immunodeficiency virus 1, IIIB, MT4, 120 h, read-out: ED50): < 8 ng/mL; SI (HIV-1 (HTLV-IIIB); Selectivity Index, ratio of CD50 to ED50, HIV-1, 7200 min): >125; CC50 at 120 h [1]: > 1 µg/mL
2 | (NH₄)₁₂[H₂P₂W₁₂O₄₈].16H₂O [Example 7] | – | – | – | – | CD50 (MT-4 cells; [3]): >500.0 µg/mL and 304.0 µg/mL; CD50 (MT-4 cells; [4]): 346.0 µg/mL and 286.0 µg/mL
3 | (NH₄)₁₇H[NaSb₉W₂₁O₈₆] [HPA 23, reference compound] | 2.8 | 7.4 | 2.4 | >4 | –
4 | K9Li[P2W17O62] [E] | 2.92 | 502.9 | 429.7 | 7.28 | –
5 | K10[P2W18Co4(H2O)2O68] | 1.47 | 84.8 | 81.6 | 12.26 | –
6 | K10[P2W18Zn4(H2O)2O68] [B] | 0.71 | 466.3 | 441.9 | 18.03 | –
7 | K12[H2P2W12O48] [A] | 0.089 | 721.0 | 675.9 | 0.153 | –
8 | K₅BW₁₂O₄₀ | – | – | – | – | activity against herpes virus (herpes virus): have activity against herpes virus
9 | K₇PW₁₀Ti₂O₄₀ | – | – | – | – | activity against herpes virus (herpes virus): have activity against herpes virus
10 | Na7[PrW10O35] [C] | 1.86 | 761.8 | 221.7 | 2.70 | –
11 | Na12[P4W14O58] [F] | 4.82 | 655.8 | 682.8 | 13.26 | –
12 | Reduced form of K₆[P₂W₁₂Mo₆O₆₂] [Example 12] | – | – | – | – | ED50 (HIV-1 (HTLV-IIIB); 7200 min): 4.1 µg/mL and 5.8 µg/mL; CD50 (MT-4 cells; [3]): 234.0 µg/mL and 300.0 µg/mL; CD50 (MT-4 cells; [4]): 315.0 µg/mL and 306.0 µg/mL; ED50 (HIV-2 (LAV-2 ROD); 7200 min): 1.8 µg/mL and 1.4 µg/mL
13 | silicotungstate acid, H₄SiW₁₂O₄₀ | – | – | – | – | toxicity in higher animals [2]: abandoned because of its toxicity in higher animals; activity against HIV (HIV): has activity against HIV
